Data published in patent publication US7629294B2, “Pyrazolopyrimidines” (Bayer CropScience LP, priority 2004, dated 2009).

assay: physchem; conditions: logP

Going from `C[C@@H](Nc1c(-c2ccc(F)cc2Cl)c(Cl)nc2c(C(N)=O)cnn12)C(C)(C)C` to `C[C@@H](Nc1c(-c2ccc(F)cc2Cl)c(Cl)nc2c(C(=O)NO)cnn12)C(C)(C)C`, the chromatographic logP falls from 3.88 to 3.51.

Compared with `C[C@@H](Nc1c(-c2ccc(F)cc2Cl)c(Cl)nc2c(C(N)=NO)cnn12)C(C)(C)C`, `CC(Nc1c(-c2ccc(F)cc2Cl)c(Cl)nc2c(Br)cnn12)C(C)(C)C` (stereo not shown) [3-bromo-5-chloro-6-(2-chloro-4-fluorophenyl)-N-(1,2,2-trimethylpropyl)pyrazolo[1,5-a]pyrimidin-7-amine] is higher in chromatographic logP: 2.47 for the first, 5.78 for the second.

Going from `CC(C)[C@@H](C)Nc1c(-c2ccc(C#N)cc2Cl)c(Cl)nc2c(C(=O)O)cnn12` (single isomer, unassigned) [Example XIX] to `COC(=O)c1cnn2c(N[C@H](C)C(C)C)c(-c3ccc(C#N)cc3Cl)c(Cl)nc12` (single isomer, unassigned) [drawing 52 atropisomer A], the chromatographic logP rises from 2.9 to 3.64.

Going from `C[C@H](Nc1c(-c2ccc(C#N)cc2Cl)c(Cl)nc2c(C(=O)O)cnn12)C(F)(F)F` (single isomer, unassigned) [Example XXII] to `COC(=O)c1cnn2c(N[C@@H](C)C(F)(F)F)c(-c3ccc(C#N)cc3Cl)c(Cl)nc12` (single isomer, unassigned) [drawing 54 atropisomer A], the chromatographic logP rises from 2.63 to 3.32.

Going from `CC(C)[C@@H](C)Nc1c(-c2ccc(C(N)=O)cc2Cl)c(Cl)nc2c(C(=O)O)cnn12` (single isomer, unassigned) [Example XX] to `COC(=O)c1cnn2c(N[C@@H](C)C(C)C)c(-c3ccc(C#N)cc3Cl)c(Cl)nc12` (single isomer, unassigned) [drawing 53 atropisomer A], the chromatographic logP rises from 1.96 to 3.72.

First: N#Cc1ccc(Br)c(Cl)c1 [3-chloro-4-bromobenzonitrile]
Second: COC(=O)C(C(=O)OC)c1ccc(C#N)cc1Cl [dimethyl(2-chloro-4-cyanophenyl)malonate]
The chromatographic logP of the first is higher: 2.82 for the first, 2.34 for the second.

Going from `C[C@@H](Nc1c(-c2ccc(F)cc2Cl)c(Cl)nc2c(C3=NOCCN3)cnn12)C(C)(C)C` [Example IX] to `C[C@@H](Nc1c(-c2ccc(F)cc2Cl)c(Cl)nc2c(C3=NOCCO3)cnn12)C(C)(C)C` [Example VIII], the chromatographic logP rises from 3.23 to 4.43.

Going from `C[C@@H](Nc1c(-c2ccc(F)cc2Cl)c(Cl)nc2c(-c3ncco3)cnn12)C(C)(C)C` [Example VII] to `C[C@@H](Nc1c(-c2ccc(F)cc2Cl)c(Cl)nc2c(-c3nsc(=O)o3)cnn12)C(C)(C)C` [Example VI], the chromatographic logP rises from 4.72 to 5.38.

First: CCC(C)c1c(Cl)nc2c(C(=O)O)cnn2c1N[C@@H](C)C(F)(F)F (stereo partly drawn) [Example XII, 5-chloro-6-(sec-butyl)-7-[(S)-3-trifluoroisopropylamino]pyrazolo[1,5-a]pyrimidine-3-carboxylic acid]
Second: CCC(C)c1c(Cl)nc2c(C(=O)O)cnn2c1N[C@@H](C)C(C)C (stereo partly drawn) [Example XIV, 5-chloro-6-(sec-butyl)-7-[(S)-3-methyl-2-butylamino]pyrazolo[1,5-a]pyrimidine-3-carboxylic acid]
The chromatographic logP of the first is lower: 2.88 for the first, 3.52 for the second.

`CC(C)[C@@H](C)Nc1c(C2CCCC2)c(Cl)nc2c(C(=O)O)cnn12` [Example XV, 5-chloro-6-cyclopentyl-7-[(R)-3-methyl-2-butylamino]pyrazolo[1,5-a]pyrimidine-3-carboxylic acid] and `CC(C)[C@H](C)Nc1c(C2CCCC2)c(Cl)nc2c(C(=O)O)cnn12` [Example XVI] are the same in chromatographic logP: 3.7 for the first, 3.7 for the second.

Compared with `C[C@H](Nc1c(C2CCCC2)c(Cl)nc2c(C(=O)O)cnn12)C(F)(F)F` [Example XVII, 5-chloro-6-cyclopentyl-7-[(S)-3-trifluoroisopropylamino]pyrazolo[1,5-a]pyrimidine-3-carboxylic acid], `COC(=O)c1cnn2c(Cl)c(C3CCCC3)c(Cl)nc12` [methyl 5,7-dichloro-6-cyclopentylpyrazolo[1,5-a]pyrimidine-3-carboxylate] is higher in chromatographic logP: 3.06 for the first, 3.31 for the second.

Compared with `CC(C)C(C)Nc1c(-c2ccc(F)cc2Cl)c(Cl)nc2c(-c3ccccn3)cnn12` (stereo not shown) [compound 538], `COC(=O)c1cnn2c(Cl)c(-c3ccc(C#N)cc3Cl)c(Cl)nc12` [methyl 5,7-dichloro-6-(2-chloro-4-cyanophenyl)pyrazolo[1,5-a]pyrimidine-3-carboxylate] is lower in chromatographic logP: 3.54 for the first, 2.85 for the second.

Going from `CCC(C)c1c(Cl)nc2c(C(=O)OC)cnn2c1Cl` (stereo not shown) [methyl 5,7-dichloro-6-(sec-butyl)-pyrazolo[1,5-a]pyrimidine-3-carboxylate] to `CCC(C)c1c(Cl)nc2c(C(=O)OC)cnn2c1N[C@H](C)C(C)C` (stereo partly drawn) [methyl 5-chloro-6-(sec-butyl)-7-[(R)-3-methyl-2-butylamino][1,5-a]pyrimidine-3-carboxylate], the chromatographic logP rises from 3.13 to 4.49.

With `CCC(C)c1c(Cl)nc2c(C(=O)OC)cnn2c1N[C@@H](C)C(C)C` (stereo partly drawn) [methyl 5-chloro-6-(sec-butyl)-7-[(S)-3-methyl-2-butylamino]pyrazolo[1,5-a]pyrimidine-3-carboxylate] the chromatographic logP was 4.49.

same assay, conditions: logPs

`Cc1ccsc1-c1c(Cl)nc2c(C(N)=O)cnn2c1NC(C)C(C)C` (stereo not drawn) [5-chloro-7-(1,2-dimethylpropylamino)-6-(3-methylthiophen-2-yl)pyrazolo[1,5-α]pyrimidine-3-carboxamide] and `COc1nc2c(C(=O)O)cnn2c(NC(C)C(C)C)c1-c1sccc1C` (stereo not drawn) [Example XXV, 7-(1,2-dimethylpropylamino)-5-methoxy-6-(3-methylthiophen-2-yl)pyrazolo[1,5-α]pyrimidine-3-carboxylic acid] are within 0.2 log units of each other in chromatographic logP: 3.5 for the first, 3.65 for the second.

Going from `CSc1cnn2c(N3CCC(C)CC3)c(-c3ccc(F)cc3Cl)c(Cl)nc12` [Example I, 5-chloro-6-(2-chloro-4-fluorophenyl)-7-(4-methylpiperidin-1-yl)-3-methylmercapto-pyrazolo [2,3-a]pyrimidine] to `CC1CCN(c2c(-c3ccc(F)cc3Cl)c(Cl)nc3c(S(C)(=O)=O)cnn23)CC1` [Example II, 5-chloro-6-(2-chloro-4-fluorophenyl)-7-(4-methylpiperidin-1-yl)-3-methylsulphonyl-pyrazolo[2,3-a]pyrimidine], the chromatographic logP falls from 5.73 to 4.2.

Compared with `CC1CCN(c2c(-c3ccc(F)cc3Cl)c(Cl)nc3c(S(=O)(=O)O)cnn23)CC1` [Example III, 5-chloro-6-(2-chloro-4-fluorophenyl)-7-(4-methylpiperidin-1-yl)pyrazolo[2,3-a]pyrimidine-3-sulphonic acid], `CNS(=O)(=O)c1cnn2c(NC(C)C(C)(C)C)c(-c3ccc(F)cc3Cl)c(Cl)nc12` (stereo not shown) [N-methyl-5-chloro-6-(2-chloro-4-fluorophenyl)-7-(1,2,2-trimethylpropylamino)pyrazolo[1,5-a]pyrimidine-3-sulphonamide] is higher in chromatographic logP: 2.48 for the first, 4.09 for the second.

Compared with `CC(C)NC(=O)c1cnn2c(N[C@H](C)C(C)C)c(-c3c(F)cccc3Cl)c(Cl)nc12` [Example IV, 5-chloro-6-(2-chloro-6-fluorophenyl)-7-{[(1R)-1,2-dimethylpropyl]amino}-N-isopropylpyrazolo[1,5-a]pyrimidine-3-carboxamide], `COC(=O)c1cnn2c(N[C@H](C)C(C)C)c(-c3c(F)cccc3Cl)c(Cl)nc12` [methyl 5-chloro-6-(2-chloro-6-fluorophenyl)-7-{[(1R)-1,2-dimethylpropyl]amino}pyrazolo[1,5-a]pyrimidine-3-carboxylate] is lower in chromatographic logP: 4.72 for the first, 4.12 for the second.

Compared with `CC(C)[C@@H](C)Nc1c(-c2c(F)cccc2Cl)c(Cl)nc2c(C(=O)O)cnn12` [Example V, 5-chloro-6-(2-chloro-6-fluorophenyl)-7-{[(1R)-1,2-dimethylpropyl]amino}pyrazolo[1,5-a]pyrimidine-3-carboxylic acid], `Cc1nnc(-c2cnn3c(NC(C)C(C)C)c(-c4ccc(F)cc4Cl)c(Cl)nc23)o1` (stereo not shown) [Example XXXVI] is higher in chromatographic logP: 3.24 for the first, 3.94 for the second.

Compared with `CC(C)C(C)Nc1c(-c2ccc(F)cc2Cl)c(Cl)nc2c(-c3nnc(N)s3)cnn12` (stereo not shown) [Example XXIX], `Cc1nnc(-c2cnn3c(NC(C)C(C)C)c(-c4ccc(F)cc4Cl)c(Cl)nc23)[nH]1` (stereo not shown) [XXXVII, [5-chloro-6-(2-chloro-4-fluorophenyl)-3-(5-methyl-[1,3,4]triazol-2-yl)pyrazolo[1,5-a]pyrimidin-7-yl](1,2-dimethylpropyl)-amine] is lower in chromatographic logP: 3.57 for the first, 2.91 for the second.

First: Cc1ccsc1-c1c(Cl)nc2c(-c3nsc(=O)o3)cnn2c1NC(C)C(C)C (stereo not drawn) [Example XXVI, 5-[5-Chloro-7-(1,2-dimethylpropylamino)-6-(3-methylthiophen-2-yl)pyrazolo[1,5-α]pyrimidin-3-yl]-[1,3,4]oxathiazol-2-one]
Second: Cc1ccsc1-c1c(Cl)nc2c(-c3ncco3)cnn2c1NC(C)C(C)C (stereo not drawn) [Example XXVII, [5-Chloro-6-(3-methylthiophen-2-yl)-3-oxazol-2-ylpyrazolo[1,5-α]pyrimidin-7-yl](1,2-dimethyl-propyl)amine]
The chromatographic logP of the first is higher: 5 for the first, 4.3 for the second.

`Cc1nnc(-c2cnn3c(O)c(-c4ccc(F)cc4Cl)c(O)nc23)o1` [Example XXX, 6-(2-Chloro-4-fluorophenyl)-3-(5-methyl-[1,3,4]oxadiazol-2-yl)pyrazolo[1,5-a]pyrimidine-5,7-diol] and `Cc1nnc(-c2cnn3c(O)c(-c4ccc(F)cc4Cl)c(O)nc23)[nH]1` [Example XXXI, 6-(2-chloro-4-fluorophenyl)-3-(5-methyl-[1,3,4]triazol-2-yl)pyrazolo[1,5-a]pyrimidine-5,7-diol] are within 0.2 log units of each other in chromatographic logP: 0.67 for the first, 0.51 for the second.

Going from `Oc1nc2c(-c3ccccn3)cnn2c(O)c1-c1ccc(F)cc1Cl` [Example XXXII, 6-(2-chloro-4-fluorophenyl)-3-pyridin-2-ylpyrazolo[1,5-a]pyrimidine-5,7-diol] to `CC(C)C(C)Nc1c(-c2ccc(F)cc2Cl)c(Cl)nc2c(-c3ccccn3)cnn12` (stereo not shown) [XXXVIII, [5-chloro-6-(2-chloro-4-fluorophenyl)-3-pyridin-2-ylpyrazolo[1,5-a]pyrimidin-7-yl](1,2-dimethylpropyl)amine], the chromatographic logP rises from 0.91 to 3.54.

`CC(C)C(C)Nc1c(-c2ccc(F)cc2Cl)c(Cl)nc2c(/C=N/NC(N)=S)cnn12` (stereo not shown) [Thiosemicarbazone of 5-chloro-6-(2-chloro-4-fluorophenyl)-7-(1,2-dimethyl-propylamino)pyrazolo[1,5-a]pyrimidine-3-carbaldehyde] gave a chromatographic logP of 3.75.
